± gives the expanded uncertainty stated by the source.
Test: molar heat capacity at constant pressure
Conditions: 101.33 kPa, Liquid

CCCCn1cc[n+](C)c1.O=S(=O)([O-])C(F)(F)F [1-butyl-3-methylimidazolium trifluoromethanesulfonate]
Conditions | molar heat capacity at constant pressure [J/K/mol]
313.16 K, Large sample (1 g) DSC | 448 ± 23
315.15 K, Small sample (50 mg) DSC | 449 ± 23
318.15 K, Large sample (1 g) DSC | 449 ± 23
320.15 K, Small sample (50 mg) DSC | 451 ± 23
323.14 K, Large sample (1 g) DSC | 451 ± 23
325.15 K, Small sample (50 mg) DSC | 452 ± 23
328.12 K, Large sample (1 g) DSC | 451 ± 23
328.15 K, modulated-temperature differential scanning calorimetry MDSC | 443 ± 22
330.15 K, Small sample (50 mg) DSC | 454 ± 24
333.15 K, modulated-temperature differential scanning calorimetry MDSC | 446 ± 22
333.17 K, Large sample (1 g) DSC | 450 ± 23
335.15 K, Small sample (50 mg) DSC | 457 ± 24
338.15 K, Large sample (1 g) DSC | 453 ± 24
338.15 K, modulated-temperature differential scanning calorimetry MDSC | 448 ± 22
340.15 K, Small sample (50 mg) DSC | 460 ± 24
343.14 K, Large sample (1 g) DSC | 455 ± 24
343.15 K, modulated-temperature differential scanning calorimetry MDSC | 450 ± 23
345.15 K, Small sample (50 mg) DSC | 462 ± 24
348.15 K, modulated-temperature differential scanning calorimetry MDSC | 453 ± 23
348.18 K, Large sample (1 g) DSC | 456 ± 24
350.15 K, Small sample (50 mg) DSC | 465 ± 24
353.15 K, modulated-temperature differential scanning calorimetry MDSC | 454 ± 23
353.18 K, Large sample (1 g) DSC | 459 ± 24
355.15 K, Small sample (50 mg) DSC | 468 ± 24
358.13 K, Large sample (1 g) DSC | 463 ± 24
358.15 K, modulated-temperature differential scanning calorimetry MDSC | 458 ± 23
360.15 K, Small sample (50 mg) DSC | 470 ± 24
363.14 K, Large sample (1 g) DSC | 467 ± 24
363.15 K, modulated-temperature differential scanning calorimetry MDSC | 460 ± 23
365.15 K, Small sample (50 mg) DSC | 473 ± 25
368.14 K, Large sample (1 g) DSC | 471 ± 24
368.15 K, modulated-temperature differential scanning calorimetry MDSC | 463 ± 23
370.15 K, Small sample (50 mg) DSC | 476 ± 25
373.13 K, Large sample (1 g) DSC | 472 ± 25
373.15 K, modulated-temperature differential scanning calorimetry MDSC | 464 ± 23
375.15 K, Small sample (50 mg) DSC | 479 ± 25
378.12 K, Large sample (1 g) DSC | 474 ± 25
378.15 K, modulated-temperature differential scanning calorimetry MDSC | 468 ± 23
380.15 K, Small sample (50 mg) DSC | 481 ± 25
383.15 K, modulated-temperature differential scanning calorimetry MDSC | 468 ± 23
383.16 K, Large sample (1 g) DSC | 477 ± 25
385.15 K, Small sample (50 mg) DSC | 484 ± 25
388.15 K, Large sample (1 g) DSC | 479 ± 25
388.15 K, modulated-temperature differential scanning calorimetry MDSC | 471 ± 24
390.15 K, Small sample (50 mg) DSC | 487 ± 25
393.13 K, Large sample (1 g) DSC | 482 ± 25
393.15 K, modulated-temperature differential scanning calorimetry MDSC | 472 ± 24
395.15 K, Small sample (50 mg) DSC | 489 ± 25
398.15 K, modulated-temperature differential scanning calorimetry MDSC | 475 ± 24
398.16 K, Large sample (1 g) DSC | 484 ± 25
400.15 K, Small sample (50 mg) DSC | 492 ± 26
403.14 K, Large sample (1 g) DSC | 487 ± 25
403.15 K, modulated-temperature differential scanning calorimetry MDSC | 476 ± 24
405.15 K, Small sample (50 mg) DSC | 495 ± 26
408.15 K, modulated-temperature differential scanning calorimetry MDSC | 477 ± 24
408.17 K, Large sample (1 g) DSC | 489 ± 25
410.15 K, Small sample (50 mg) DSC | 498 ± 26
413.14 K, Large sample (1 g) DSC | 491 ± 26
413.15 K, modulated-temperature differential scanning calorimetry MDSC | 481 ± 24
415.15 K, Small sample (50 mg) DSC | 500 ± 26
418.17 K, Large sample (1 g) DSC | 494 ± 26
420.15 K, Small sample (50 mg) DSC | 503 ± 26
423.14 K, Large sample (1 g) DSC | 494 ± 26
425.15 K, Small sample (50 mg) DSC | 506 ± 26

CCn1cc[n+](C)c1.O=S(=O)([O-])C(F)(F)F [1-ethyl-3-methylimidazolium trifluoromethanesulfonate]
Conditions | molar heat capacity at constant pressure [J/K/mol]
313.13 K, Large sample (1 g) DSC | 384 ± 20
315.15 K, Small sample (50 mg) DSC | 386 ± 20
318.13 K, Large sample (1 g) DSC | 385 ± 20
320.15 K, Small sample (50 mg) DSC | 388 ± 20
323.12 K, Large sample (1 g) DSC | 386 ± 20
325.15 K, Small sample (50 mg) DSC | 390 ± 20
328.15 K, modulated-temperature differential scanning calorimetry MDSC | 392 ± 20
328.16 K, Large sample (1 g) DSC | 384 ± 20
330.15 K, Small sample (50 mg) DSC | 392 ± 20
333.14 K, Large sample (1 g) DSC | 383 ± 20
333.15 K, modulated-temperature differential scanning calorimetry MDSC | 395 ± 20
335.15 K, Small sample (50 mg) DSC | 394 ± 20
338.15 K, modulated-temperature differential scanning calorimetry MDSC | 397 ± 20
338.17 K, Large sample (1 g) DSC | 387 ± 20
340.15 K, Small sample (50 mg) DSC | 395 ± 21
343.15 K, modulated-temperature differential scanning calorimetry MDSC | 398 ± 20
343.17 K, Large sample (1 g) DSC | 391 ± 20
345.15 K, Small sample (50 mg) DSC | 396 ± 21
348.13 K, Large sample (1 g) DSC | 392 ± 20
348.15 K, modulated-temperature differential scanning calorimetry MDSC | 400 ± 20
350.15 K, Small sample (50 mg) DSC | 397 ± 21
353.15 K, modulated-temperature differential scanning calorimetry MDSC | 402 ± 20
353.16 K, Large sample (1 g) DSC | 393 ± 20
355.15 K, Small sample (50 mg) DSC | 399 ± 21
358.12 K, Large sample (1 g) DSC | 395 ± 21
358.15 K, modulated-temperature differential scanning calorimetry MDSC | 404 ± 20
360.15 K, Small sample (50 mg) DSC | 401 ± 21
363.14 K, Large sample (1 g) DSC | 398 ± 21
363.15 K, modulated-temperature differential scanning calorimetry MDSC | 405 ± 20
365.15 K, Small sample (50 mg) DSC | 403 ± 21
368.14 K, Large sample (1 g) DSC | 400 ± 21
368.15 K, modulated-temperature differential scanning calorimetry MDSC | 408 ± 20
370.15 K, Small sample (50 mg) DSC | 405 ± 21
373.14 K, Large sample (1 g) DSC | 401 ± 21
373.15 K, modulated-temperature differential scanning calorimetry MDSC | 409 ± 20
375.15 K, Small sample (50 mg) DSC | 406 ± 21
378.13 K, Large sample (1 g) DSC | 402 ± 21
378.15 K, modulated-temperature differential scanning calorimetry MDSC | 411 ± 21
380.15 K, Small sample (50 mg) DSC | 409 ± 21
383.15 K, modulated-temperature differential scanning calorimetry MDSC | 412 ± 21
383.17 K, Large sample (1 g) DSC | 405 ± 21
385.15 K, Small sample (50 mg) DSC | 410 ± 21
388.15 K, Large sample (1 g) DSC | 407 ± 21
388.15 K, modulated-temperature differential scanning calorimetry MDSC | 414 ± 21
390.15 K, Small sample (50 mg) DSC | 412 ± 21
393.14 K, Large sample (1 g) DSC | 410 ± 21
393.15 K, modulated-temperature differential scanning calorimetry MDSC | 416 ± 21
395.15 K, Small sample (50 mg) DSC | 414 ± 22
398.15 K, modulated-temperature differential scanning calorimetry MDSC | 416 ± 21
398.17 K, Large sample (1 g) DSC | 411 ± 21
400.15 K, Small sample (50 mg) DSC | 416 ± 22
403.15 K, Large sample (1 g) DSC | 414 ± 22
403.15 K, modulated-temperature differential scanning calorimetry MDSC | 418 ± 21
405.15 K, Small sample (50 mg) DSC | 418 ± 22
408.12 K, Large sample (1 g) DSC | 416 ± 22
408.15 K, modulated-temperature differential scanning calorimetry MDSC | 419 ± 21
410.15 K, Small sample (50 mg) DSC | 420 ± 22
413.15 K, Large sample (1 g) DSC | 419 ± 22
413.15 K, modulated-temperature differential scanning calorimetry MDSC | 421 ± 21
415.15 K, Small sample (50 mg) DSC | 422 ± 22
418.17 K, Large sample (1 g) DSC | 421 ± 22
420.15 K, Small sample (50 mg) DSC | 424 ± 22
423.14 K, Large sample (1 g) DSC | 422 ± 22
425.15 K, Small sample (50 mg) DSC | 425 ± 22

Reference: the NIST ThermoML archive (doi:10.1016/j.fluid.2006.03.015)
